Measured values: US10227350B2 (Gilead Sciences, Inc., priority 2016, dated 2019)

Target: PI3Kβ (Homo sapiens (Human), UniProt P42338)
Assay: TR-FRET enzymatic activity assay, PI3Kβ
Assay type: biochemical
Conditions: 2× Km ATP, 2 μM PIP2, 30 minutes at 25° C., read-out: IC50-PIP-Beta
Protocol: The compounds of formula (I) were characterized for their enzymatic activity against the PI3K isoforms. The activities were measured using a time-resolved fluorescence resonance energy transfer (TR-FRET) assay. TR-FRET monitored the formation of 3,4,5-inositol triphosphate molecule that competed with fluorescently labeled PIPS for binding to the GRP-1 pleckstrin homology domain protein.
Class I PI3K isoforms were expressed and purified as heterodimeric recombinant proteins. All assay reagents and buffers for the TR-FRET assay were purchased from Millipore. […] The compounds were added to the assay solution and incubated for 30 minutes at 25° C.

PI3Kβ, sequence (P42338 whole entry): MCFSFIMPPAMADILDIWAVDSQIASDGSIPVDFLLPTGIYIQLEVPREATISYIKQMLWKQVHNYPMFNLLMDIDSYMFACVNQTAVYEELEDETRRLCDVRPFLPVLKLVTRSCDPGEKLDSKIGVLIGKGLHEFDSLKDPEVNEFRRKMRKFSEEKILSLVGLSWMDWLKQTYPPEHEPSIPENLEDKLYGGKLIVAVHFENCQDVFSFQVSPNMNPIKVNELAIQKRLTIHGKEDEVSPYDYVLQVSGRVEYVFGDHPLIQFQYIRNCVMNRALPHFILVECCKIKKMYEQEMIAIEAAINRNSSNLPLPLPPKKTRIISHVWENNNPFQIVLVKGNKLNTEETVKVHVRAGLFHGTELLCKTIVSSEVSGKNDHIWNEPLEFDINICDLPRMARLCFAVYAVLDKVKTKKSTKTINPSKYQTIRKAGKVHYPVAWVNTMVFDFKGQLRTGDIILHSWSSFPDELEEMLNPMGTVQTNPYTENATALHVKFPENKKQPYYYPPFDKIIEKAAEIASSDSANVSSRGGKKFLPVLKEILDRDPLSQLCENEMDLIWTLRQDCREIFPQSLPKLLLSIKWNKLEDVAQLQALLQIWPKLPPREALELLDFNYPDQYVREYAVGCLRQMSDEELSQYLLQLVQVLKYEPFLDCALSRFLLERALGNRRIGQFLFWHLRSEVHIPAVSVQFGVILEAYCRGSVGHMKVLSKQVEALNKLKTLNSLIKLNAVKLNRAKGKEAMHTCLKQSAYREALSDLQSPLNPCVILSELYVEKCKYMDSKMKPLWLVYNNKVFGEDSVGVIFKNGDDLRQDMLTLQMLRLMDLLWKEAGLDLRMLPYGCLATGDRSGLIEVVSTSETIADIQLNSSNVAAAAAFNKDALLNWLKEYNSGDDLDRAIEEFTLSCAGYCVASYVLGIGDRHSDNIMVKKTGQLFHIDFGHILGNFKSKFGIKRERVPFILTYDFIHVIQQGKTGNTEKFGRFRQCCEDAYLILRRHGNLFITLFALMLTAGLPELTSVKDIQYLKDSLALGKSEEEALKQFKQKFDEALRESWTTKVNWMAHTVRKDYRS
PI3Kβ, sequence (P27986 whole entry partner): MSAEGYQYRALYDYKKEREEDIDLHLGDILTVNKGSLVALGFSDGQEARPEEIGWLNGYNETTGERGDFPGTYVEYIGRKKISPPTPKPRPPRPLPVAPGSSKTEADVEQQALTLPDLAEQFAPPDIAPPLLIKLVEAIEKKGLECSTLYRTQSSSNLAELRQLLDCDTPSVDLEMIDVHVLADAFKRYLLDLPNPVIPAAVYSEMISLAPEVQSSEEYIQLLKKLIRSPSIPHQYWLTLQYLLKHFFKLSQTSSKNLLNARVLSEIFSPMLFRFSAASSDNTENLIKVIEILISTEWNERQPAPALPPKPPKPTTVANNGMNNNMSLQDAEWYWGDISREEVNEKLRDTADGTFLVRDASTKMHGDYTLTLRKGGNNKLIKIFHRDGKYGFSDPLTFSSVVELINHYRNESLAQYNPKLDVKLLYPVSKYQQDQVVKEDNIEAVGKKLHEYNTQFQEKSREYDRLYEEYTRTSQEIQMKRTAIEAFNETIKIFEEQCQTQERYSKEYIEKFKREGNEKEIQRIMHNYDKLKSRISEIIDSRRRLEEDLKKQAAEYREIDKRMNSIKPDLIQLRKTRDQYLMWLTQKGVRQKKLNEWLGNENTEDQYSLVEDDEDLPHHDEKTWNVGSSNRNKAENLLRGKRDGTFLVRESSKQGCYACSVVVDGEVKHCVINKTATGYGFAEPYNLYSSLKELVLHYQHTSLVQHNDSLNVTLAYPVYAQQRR

| SMILES | IC50 [nM] |
| --- | --- |
| Cc1nc2c(-c3nnc[nH]3)cc(-c3ccnc(N)c3F)cc2n1-c1ccnc2c(F)ccc(F)c12 (atropisomer, axis not shown) [Example 106, 4-[3-(5,8-difluoroquinolin-4-yl)-2-methyl-7-(4H-1,2,4-triazol-3-yl)benzimidazol-5-yl]-3-fluoropyridin-2-amine] | 3 |
| Cc1nc2c(-c3nnc[nH]3)cc(-c3ccncc3)cc2n1-c1ccnc2c(F)ccc(F)c12 (atropisomer, axis not shown) [Example 139, 5,8-difluoro-4-(2-methyl-6-(pyridin-4-yl)-4-(4H-1,2,4-triazol-3-yl)-1H-benzo[d]imidazol-1-yl)quinoline] | 6 |
| Cc1nc2c(-c3nnc[nH]3)cc(-c3ccnc(N)c3)cc2n1-c1ccnc2c(F)ccc(F)c12 (single isomer, unassigned) [Example 103, 4-(1-(5,8-difluoroquinolin-4-yl)-2-methyl-4-(4H-1,2,4-triazol-3-yl)-1H-benzo[d]imidazol-6-yl)pyridin-2-amine] | 210 |
| Cc1nc2c(-c3nnc[nH]3)cc(-c3ccnc(N)c3)cc2n1-c1ccnc2c(F)ccc(F)c12 (single isomer, unassigned) [Example 104, 4-(1-(5,8-difluoroquinolin-4-yl)-2-methyl-4-(4H-1,2,4-triazol-3-yl)-1H-benzo[d]imidazol-6-yl)pyridin-2-amine] | 9 |
| Cc1nc2c(-c3nnc[nH]3)cc(-c3ccnc(N)c3F)cc2n1-c1ccnc2c(F)ccc(F)c12 (single isomer, unassigned) [Example 105, 4-[3-(5,8-difluoroquinolin-4-yl)-2-methyl-7-(4H-1,2,4-triazol-3-yl)benzimidazol-5-yl]-3-fluoropyridin-2-amine] | 1400 |
| Cc1nc2c(-c3nnc[nH]3)cc(-c3ccnc(N)c3F)cc2n1-c1c(Cl)cnc2c(F)cccc12 (single isomer, unassigned) [Example 107, 4-[3-(3-chloro-8-fluoroquinolin-4-yl)-2-methyl-7-(4H-1,2,4-triazol-3-yl)benzimidazol-5-yl]-3-fluoropyridin-2-amine] | 29 |
| Cc1nc2c(-c3nnc[nH]3)cc(-c3ccnc(N)c3F)cc2n1-c1c(Cl)cnc2c(F)cccc12 (single isomer, unassigned) [Example 108, 4-[3-(3-chloro-8-fluoroquinolin-4-yl)-2-methyl-7-(4H-1,2,4-triazol-3-yl)benzimidazol-5-yl]-3-fluoropyridin-2-amine] | 810 |
| CCc1nc2c(-c3nnc[nH]3)cc(-c3ccnc(N)c3F)cc2n1-c1ccnc2c(F)ccc(F)c12 (single isomer, unassigned) [Example 109, 4-[3-(5,8-difluoroquinolin-4-yl)-2-ethyl-7-(4H-1,2,4-triazol-3-yl)benzimidazol-5-yl]-3-fluoropyridin-2-amine] | 2600 |
| CCc1nc2c(-c3nnc[nH]3)cc(-c3ccnc(N)c3F)cc2n1-c1ccnc2c(F)ccc(F)c12 (single isomer, unassigned) [Example 110, 4-[3-(5,8-difluoroquinolin-4-yl)-2-ethyl-7-(4H-1,2,4-triazol-3-yl)benzimidazol-5-yl]-3-fluoropyridin-2-amine] | 2 |
| Cc1nnc(-c2cc(-c3ccnc(N)c3F)cc3c2nc(C)n3-c2ccnc3c(Cl)ccc(F)c23)[nH]1 (single isomer, unassigned) [Example 111, 4-[3-(8-chloro-5-fluoroquinolin-4-yl)-2-methyl-7-(5-methyl-4H-1,2,4-triazol-3-yl)benzimidazol-5-yl]-3-fluoropyridin-2-amine] | 2500 |
| Cc1nnc(-c2cc(-c3ccnc(N)c3F)cc3c2nc(C)n3-c2ccnc3c(Cl)ccc(F)c23)[nH]1 (single isomer, unassigned) [Example 112, 4-[3-(8-chloro-5-fluoroquinolin-4-yl)-2-methyl-7-(5-methyl-4H-1,2,4-triazol-3-yl)benzimidazol-5-yl]-3-fluoropyridin-2-amine] | 5 |
| Cc1nc2c(-c3nnc[nH]3)cc(-c3ccnc(C#N)c3)cc2n1-c1ccnc2c(F)ccc(F)c12 (single isomer, unassigned) [Example 113, 4-[3-(5,8-difluoroquinolin-4-yl)-2-methyl-7-(4H-1,2,4-triazol-3-yl)benzimidazol-5-yl]pyridine-2-carbonitrile] | 2 |
| Cc1nc2c(-c3nnc[nH]3)cc(-c3ccnc(C#N)c3)cc2n1-c1ccnc2c(F)ccc(F)c12 (single isomer, unassigned) [Example 114, 4-[3-(5,8-difluoroquinolin-4-yl)-2-methyl-7-(4H-1,2,4-triazol-3-yl)benzimidazol-5-yl]pyridine-2-carbonitrile] | 560 |
| Cc1nc2c(-c3nnc[nH]3)cc(-c3ccnc(C#N)c3)cc2n1-c1ccnc2cc(F)cc(F)c12 (single isomer, unassigned) [Example 115, 4-(1-(5,7-difluoroquinolin-4-yl)-2-methyl-4-(4H-1,2,4-triazol-3-yl)-1H-benzo[d]imidazol-6-yl)picolinonitrile] | 3 |
| Cc1nc2c(-c3nnc[nH]3)cc(-c3ccnc(C#N)c3)cc2n1-c1ccnc2cc(F)cc(F)c12 (single isomer, unassigned) [Example 116, 4-(1-(5,7-difluoroquinolin-4-yl)-2-methyl-4-(4H-1,2,4-triazol-3-yl)-1H-benzo[d]imidazol-6-yl)picolinonitrile] | 30 |
| Cc1nc2c(-c3nnc[nH]3)cc(-c3ccnc(N)c3F)cc2n1-c1ccnc2cc(F)cc(F)c12 (single isomer, unassigned) [Example 117] | 4 |
| Cc1nc2c(-c3nnc[nH]3)cc(-c3ccnc(N)c3F)cc2n1-c1ccnc2cc(F)cc(F)c12 (single isomer, unassigned) [Example 118] | 35 |
| Cc1nc2c(-c3nnc[nH]3)cc(-c3ccnc(N)c3F)cc2n1-c1ccnc2c(Cl)ccc(Cl)c12 (single isomer, unassigned) [Example 119, 4-(1-(5,8-dichloroquinolin-4-yl)-2-methyl-4-(4H-1,2,4-triazol-3-yl)-1H-benzo[d]imidazol-6-yl)-3-fluoropyridin-2-amine] | 87 |
| Cc1nc2c(-c3nnc[nH]3)cc(-c3ccnc(N)c3F)cc2n1-c1ccnc2c(Cl)ccc(Cl)c12 (single isomer, unassigned) [Example 120, 4-(1-(5,8-dichloroquinolin-4-yl)-2-methyl-4-(4H-1,2,4-triazol-3-yl)-1H-benzo[d]imidazol-6-yl)-3-fluoropyridin-2-amine] | 4 |
| Cc1nc2c(-c3nnc[nH]3)cc(-c3ccnc(C#N)c3)cc2n1-c1ccnc2c(Cl)ccc(Cl)c12 (single isomer, unassigned) [Example 121, 4-(1-(5,8-dichloroquinolin-4-yl)-2-methyl-4-(4H-1,2,4-triazol-3-yl)-1H-benzo[d]imidazol-6-yl)picolinonitrile] | 1 |
| Cc1nc2c(-c3nnc[nH]3)cc(-c3ccnc(C#N)c3)cc2n1-c1ccnc2c(Cl)ccc(Cl)c12 (single isomer, unassigned) [Example 122, 4-(1-(5,8-dichloroquinolin-4-yl)-2-methyl-4-(4H-1,2,4-triazol-3-yl)-1H-benzo[d]imidazol-6-yl)picolinonitrile] | 28 |
| Cc1nc2c(-c3nnc[nH]3)cc(-c3ccnc(C#N)c3)cc2n1-c1ccnc2c(F)ccc(Cl)c12 (single isomer, unassigned) [Example 123, 4-(1-(5-chloro-8-fluoroquinolin-4-yl)-2-methyl-4-(4H-1,2,4-triazol-3-yl)-1H-benzo[d]imidazol-6-yl)picolinonitrile] | 8 |
| Cc1nc2c(-c3nnc[nH]3)cc(-c3ccnc(C#N)c3)cc2n1-c1ccnc2c(F)ccc(Cl)c12 (single isomer, unassigned) [Example 124, 4-(1-(5-chloro-8-fluoroquinolin-4-yl)-2-methyl-4-(4H-1,2,4-triazol-3-yl)-1H-benzo[d]imidazol-6-yl)picolinonitrile] | 160 |
| Cc1nc2c(-c3nnc[nH]3)cc(-c3ccnc(C#N)c3)cc2n1-c1ccnc2cccc(Cl)c12 (single isomer, unassigned) [Example 125, 4-(1-(5-chloroquinolin-4-yl)-2-methyl-4-(4H-1,2,4-triazol-3-yl)-1H-benzo[d]imidazol-6-yl)picolinonitrile] | 110 |
| Cc1nc2c(-c3nnc[nH]3)cc(-c3ccnc(C#N)c3)cc2n1-c1ccnc2cccc(Cl)c12 (single isomer, unassigned) [Example 126, 4-(1-(5-chloroquinolin-4-yl)-2-methyl-4-(4H-1,2,4-triazol-3-yl)-1H-benzo[d]imidazol-6-yl)picolinonitrile] | 780 |
| Cc1nc2c(-c3nnc[nH]3)cc(-c3ccnc(C#N)c3)cc2n1-c1ccnc2c(F)cccc12 (single isomer, unassigned) [Example 127, 4-(1-(8-fluoroquinolin-4-yl)-2-methyl-4-(4H-1,2,4-triazol-3-yl)-1H-benzo[d]imidazol-6-yl)picolinonitrile] | 9 |
| Cc1nc2c(-c3nnc[nH]3)cc(-c3ccnc(C#N)c3)cc2n1-c1ccnc2c(F)cccc12 (single isomer, unassigned) [Example 128, 4-(1-(8-fluoroquinolin-4-yl)-2-methyl-4-(4H-1,2,4-triazol-3-yl)-1H-benzo[d]imidazol-6-yl)picolinonitrile] | 360 |
| Cc1nc2c(-c3nnc[nH]3)cc(-c3ccnc(C#N)c3)cc2n1-c1ccnc2c(Cl)cccc12 (single isomer, unassigned) [Example 129, 4-(1-(8-chloroquinolin-4-yl)-2-methyl-4-(4H-1,2,4-triazol-3-yl)-1H-benzo[d]imidazol-6-yl)picolinonitrile] | 3 |
| Cc1nc2c(-c3nnc[nH]3)cc(-c3ccnc(C#N)c3)cc2n1-c1ccnc2c(Cl)cccc12 (single isomer, unassigned) [Example 130, 4-(1-(8-chloroquinolin-4-yl)-2-methyl-4-(4H-1,2,4-triazol-3-yl)-1H-benzo[d]imidazol-6-yl)picolinonitrile] | 57 |
